Earlier results in PMC7196435 (Bioorganic & medicinal chemistry letters, 2020).

Tested on: CYP46A1
Conditions: at 1 μM concentration

Compound: O=C(NCc1ccccc1)N1CCN(c2cncnc2-c2ccccc2)CC1 [compound 1]
- inhibitory activity towards CYP46A1: 95%
